biological target: T1, human recombinant PDE9 enzyme (Homo sapiens, UniProt O76083); assay: Phosphodiesterase 9 (PDE9) inhibitory activity, Scintillation Proximity (SPA) assay; type: biochemical; conditions: human recombinant PDE9 from SF-9 cells; 50 nM [3H]cGMP; room temperature, 30 min; Examples 3-114; read-out: G5678A (U): IC50
T1 construct: made in house; host or cells: SF-9 insect cells
Outline: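 Scintillation proximity read-out of [3H]cGMP hydrolysis after 30 min at room temperature, with enzyme addition starting the reaction. The enzyme was human recombinant PDE9 expressed in SF-9 cells, titrated to keep substrate turnover at 20% or less. Compound wells held 2% DMSO final, and background was defined with excess PDE inhibitor.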

T1 sequence (O76083 whole entry): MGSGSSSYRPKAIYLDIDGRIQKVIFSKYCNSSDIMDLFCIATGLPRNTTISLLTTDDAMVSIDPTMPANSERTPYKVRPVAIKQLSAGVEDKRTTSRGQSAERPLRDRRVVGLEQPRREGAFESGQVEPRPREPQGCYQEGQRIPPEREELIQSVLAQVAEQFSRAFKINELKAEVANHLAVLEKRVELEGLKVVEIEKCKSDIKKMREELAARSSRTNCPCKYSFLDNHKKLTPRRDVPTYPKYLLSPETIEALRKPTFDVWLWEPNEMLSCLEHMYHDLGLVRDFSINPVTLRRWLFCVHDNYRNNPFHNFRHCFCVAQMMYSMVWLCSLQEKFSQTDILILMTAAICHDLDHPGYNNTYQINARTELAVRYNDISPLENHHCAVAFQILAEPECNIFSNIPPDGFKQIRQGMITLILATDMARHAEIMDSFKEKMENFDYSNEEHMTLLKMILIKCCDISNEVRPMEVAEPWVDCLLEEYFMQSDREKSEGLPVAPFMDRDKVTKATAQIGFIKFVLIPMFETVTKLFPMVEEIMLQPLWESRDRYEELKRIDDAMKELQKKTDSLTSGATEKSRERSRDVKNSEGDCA

IC50 [nM] | Compound
4.21 | CC[C@@H]1CN(Cc2ccccn2)C[C@H]1c1nc2c(cnn2C2CCOCC2)c(=O)[nH]1 [Example 109, 6-[(3S,4S)-4-ethyl-1-(pyridin-2-ylmethyl)pyrrolidin-3-yl]-1-(tetrahydro-2H-pyran-4-yl)-1,5-dihydro-4H-pyrazolo[3,4-d]pyrimidin-4-one]
2.59 | CC[C@@H]1CN(C(=O)c2cnc3ccccc3n2)C[C@H]1c1nc2c(cnn2C2CCOCC2)c(=O)[nH]1 [Example 110, 6-[(3S,4S)-4-ethyl-1-(quinoxalin-2-ylcarbonyl)pyrrolidin-3-yl]-1-(tetrahydro-2H-pyran-4-yl)-1,5-dihydro-4H-pyrazolo[3,4-d]pyrimidin-4-one]
1.37 | CC[C@@H]1CN(Cc2ccccc2C#N)C[C@H]1c1nc2c(cnn2C2CCOCC2)c(=O)[nH]1 [Example 112, 2-({(3S,4S)-3-ethyl-4-[4-oxo-1-(tetrahydro-2H-pyran-4-yl)-45-dihydro-1H-pyrazolo[3,4-d]pyrimidin-6-yl]pyrrolidin-1-yl}methyl)benzonitrile]
< 1 | CC[C@@H]1CN(Cc2cccc(C#N)c2)C[C@H]1c1nc2c(cnn2C2CCOCC2)c(=O)[nH]1 [Example 113, 3-({(3S,4S)-3-ethyl-4-[4-oxo-1-(tetrahydro-2H-pyran-4-yl)-4,5-dihydro-1H-pyrazolo[3,4-d]pyrimidin-6-yl]pyrrolidin-1-yl}methyl)benzonitrile]
2.31 | CC[C@@H]1CN(Cc2ccc(C#N)cc2)C[C@H]1c1nc2c(cnn2C2CCOCC2)c(=O)[nH]1 [Example 114, 4-({(3S,4S)-3-ethyl-4-[4-oxo-1-(tetrahydro-2H-pyran-4-yl)-45-dihydro-1H-pyrazolo[3,4-d]pyrimidin-6-yl]pyrrolidin-1-yl}methyl)benzonitrile]

same assay, conditions: human recombinant PDE9 from SF-9 cells; 50 nM [3H]cGMP; room temperature, 30 min; additional compounds Ex. 115-228; read-out: G5678A (U):IC50

Compound | IC50 [nM]
Cc1cc(CN2CC(C)C(c3nc4c(cnn4C4CCCC4)c(=O)[nH]3)C2)n(C)n1 (stereo not drawn) [Example 133, 1-cyclopentyl-6-{(3,4-trans)-1-[(1,3-dimethyl-1H-pyrazol-5-yl)methyl]-4-methylpyrrolidin-3-yl}-1,5-dihydro-4H-pyrazolo[3,4-d]pyrimidin-4-one] | 33.7

Reference: patent publication US7964607B2, “Pyrazolo[3,4-d]pyrimidine compounds” (Pfizer Inc., priority 2007, dated 2011)
